Where two headings read alike, the source gives them in different places. *1 amine or outer side, *2 acyl side, *3 side chain or, on linkers, in order; H or OH if unused. Where a SMILES comes first, the peptide text is derived from it. Bridges are numbered along the chain shown (N, C = ends). [ ]: non-standard residue; d: D form. The star is where a group is joined. X2 = O=C(CCOCC(COCCC(=O)NCCOCCOCCOCCOC[C@H]1OC[C@H](Nc2cncc(C(F)(F)F)n2)[C@@H](O)[C@H]1O)NCC(=O)*)NCCOCCOCCOCCOC[C@H]1OC[C@H](Nc2cncc(C(F)(F)F)n2)[C@@H](O)[C@H]1O; X1 = O=C([C@@H]1C[C@H](N[*:3])CN1[*:1])[*:2]
Experiments:
[1] = molecular target: T1, ASGPR receptor on the cell surface (HepG2 cells) (Homo sapiens, UniProt P07306); experiment: Ternary complex formation assay (flow cytometry, HepG2); assay type: cell-based
T1 construct: host or cells: HepG2
T1 sequence (P07306 1-291): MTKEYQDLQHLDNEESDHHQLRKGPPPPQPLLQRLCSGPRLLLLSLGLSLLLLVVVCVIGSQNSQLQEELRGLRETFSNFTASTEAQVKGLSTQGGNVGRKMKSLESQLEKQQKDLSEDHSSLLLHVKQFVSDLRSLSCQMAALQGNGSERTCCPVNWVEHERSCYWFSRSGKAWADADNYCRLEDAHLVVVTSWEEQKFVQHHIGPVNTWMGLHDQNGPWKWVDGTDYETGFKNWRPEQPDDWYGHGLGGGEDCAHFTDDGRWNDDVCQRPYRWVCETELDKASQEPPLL
T1 sequence (P07307 1-311 partner): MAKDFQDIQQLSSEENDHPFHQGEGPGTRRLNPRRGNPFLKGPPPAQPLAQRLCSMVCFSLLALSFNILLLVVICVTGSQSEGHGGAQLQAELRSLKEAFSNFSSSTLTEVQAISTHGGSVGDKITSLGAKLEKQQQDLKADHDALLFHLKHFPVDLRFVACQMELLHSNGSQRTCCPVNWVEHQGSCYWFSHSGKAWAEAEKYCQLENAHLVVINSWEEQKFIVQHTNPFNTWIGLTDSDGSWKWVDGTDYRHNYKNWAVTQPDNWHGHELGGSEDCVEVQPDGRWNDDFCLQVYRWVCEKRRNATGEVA
Summary of the method: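 HepG2 cells (1×10^5/well) incubated 1 h at 4 °C with 100 nM AF488-labeled anti-human IgG plus serial IgG-based degrader, or 100 nM AF488 rabbit anti-DNP plus serial DNP-based degrader. After washing, cell-associated AF488 MFI read by flow cytometry; peak MFI marks optimal degrader concentration for ternary complex.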

IgG = experiment: Affinity to IgG by surface plasmon resonance (SPR); assay type: binding
Procedure: Immobilization levels ranging from 1000-1300 resonance units (RU) are obtained. The running buffer is 10 mM HEPES, pH 7.4, 400 mM NaCl, 0.005% P20, […].

ASGPR = molecular target: T2, ASGPR (Homo sapiens, UniProt P07306); experiment: Affinity to ASGPR by surface plasmon resonance (SPR)
T2 sequence (P07306 1-291): T1 sequence (P07306 1-291)

HepG2 cells = experiment: Cellular uptake assay of AF488-labeled antibody (HepG2); assay type: cell-based; settings: HepG2 cells
Summary of the method: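 Ternary-complex uptake via ASGPR was imaged after fixation: the read-out is AF488-positive HepG2 cells divided by total DAPI nuclei. Degrader dilutions (IgG- or DNP-based, 0.1% DMSO final) were co-incubated 6 h at 37° C. with 100 nM of the corresponding fluorescent antibody.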

[2] = HepG2 cells, ternary complex formation, read-out: TCF EC50
[3] = 100 nM AF488-labeled antibody, 37° C. for 6 hours, class symbols, read-out: Uptake Assay EC50
[4] = Biacore 8K, 25° C., IgG on CM5 chip, read-out: IgG SPR Binding Kd

Row | SMILES | EC50 [1, 2] [µM] | Kd (IgG; SPR, read-out: IgG KD) [µM] | Kd (ASGPR) [µM] | EC50 (HepG2 cells; read-out: Uptake EC50) [µM] | EC50 [1] [µM] | EC50 (HepG2 cells; [3]) [µM] | EC50 ([1]; read-out: Ternary Complex EC50) [µM] | Kd (IgG; [4]) [µM] | EC50 ([1]; HepG2 cells, 100 nM AF488-labeled antibody, 1 hour at 4° C., class symbols, read-out: Ternary Complex EC50) [µM] | Kd (ASGPR; read-out: ASGPR KD, SPR) [µM] | EC50 ([1]; TCF EC50, HepG2 cells, ternary complex formation) [µM]
1 | CC(C)C[C@@H]1NC(=O)[C@H](Cc2cnc[nH]2)NC(=O)[C@H](Cc2c[nH]c3ccccc23)NC(=O)[C@H](C)NC(=O)[C@@H]2CSSC[C@H](NC(=O)[C@H](Cc3c[nH]c4ccccc34)NC(=O)[C@H](C(C)C)NC(=O)[C@H](CC(C)C)NC(=O)[C@H](CCC(=O)O)NC(=O)CNC1=O)C(=O)N[C@@H]([C@@H](C)O)C(=O)N1CCC[C@@H]1C(=O)N1C[C@@H](NC(=O)CC(=O)NC[C@H]3OC[C@H](Nc4cncc(C(F)(F)F)n4)[C@@H](O)[C@H]3O)C[C@H]1C(=O)N[C@@H](CC(=O)O)C(=O)N2 [Compound 62] | < 0.1 | < 0.1 | < 0.1 | < 0.1 | – | – | – | – | – | – | –
2 | CC(C)C[C@@H]1NC(=O)[C@H](Cc2c[nH]cn2)NC(=O)[C@H](Cc2c[nH]c3ccccc23)NC(=O)[C@H](C)NC(=O)[C@@H]2CSSC[C@H](NC(=O)[C@H](Cc3c[nH]c4ccccc34)NC(=O)[C@H](C(C)C)NC(=O)[C@H](CC(C)C)NC(=O)[C@H](CCC(=O)O)NC(=O)CNC1=O)C(=O)N[C@@H]([C@@H](C)O)C(=O)N1CCC[C@@H]1C(=O)N1C[C@@H](NC(=O)CNC(COCCC(=O)NCCOCCOCCOCCOC[C@H]3OC[C@H](Nc4cncc(C(F)(F)F)n4)[C@@H](O)[C@H]3O)COCCC(=O)NCCOCCOCCOCCOC[C@H]3OC[C@H](Nc4cncc(C(F)(F)F)n4)[C@@H](O)[C@H]3O)C[C@H]1C(=O)N[C@@H](CC(=O)O)C(=O)N2 [Compound 45] | – | < 0.1 | < 0.1 | – | < 0.1 | < 0.1 | – | – | – | – | –
3 | CC(=O)N[C@H]1[C@H](OCCOCCOCCOCCNC(=O)CCOCC(COCCC(=O)NCCOCCOCCOCCO[C@@H]2O[C@H](CO)[C@H](O)[C@H](O)[C@H]2NC(C)=O)(COCCC(=O)NCCOCCOCCOCCO[C@@H]2O[C@H](CO)[C@H](O)[C@H](O)[C@H]2NC(C)=O)NC(=O)CCCCCn2cc(CCCC(=O)NCCOCCOCCOCCOCCC(=O)N[C@H]3C[C@H]4C(=O)N[C@@H](CC(=O)O)C(=O)N[C@H]5CSSC[C@H](NC(=O)[C@H](Cc6c[nH]c7ccccc67)NC(=O)[C@H](C(C)C)NC(=O)[C@H](CC(C)C)NC(=O)[C@H](CCC(=O)O)NC(=O)CNC(=O)[C@H](CC(C)C)NC(=O)[C@H](Cc6c[nH]cn6)NC(=O)[C@H](Cc6c[nH]c7ccccc67)NC(=O)[C@H](C)NC5=O)C(=O)N[C@@H]([C@@H](C)O)C(=O)N5CCC[C@@H]5C(=O)N4C3)nn2)O[C@H](CO)[C@H](O)[C@@H]1O [Compound 85] | – | < 0.1 | 0.5 to 1 | > 1 | > 1 | – | – | – | – | – | –
4 | CC(C)C[C@@H]1NC(=O)[C@H](Cc2c[nH]cn2)NC(=O)[C@H](Cc2c[nH]c3ccccc23)NC(=O)[C@H](C)NC(=O)[C@@H]2CSSC[C@H](NC(=O)[C@H](Cc3c[nH]c4ccccc34)NC(=O)[C@H](C(C)C)NC(=O)[C@H](CC(C)C)NC(=O)[C@H](CCC(=O)O)NC(=O)CNC1=O)C(=O)N[C@@H]([C@@H](C)O)C(=O)N1CCC[C@@H]1C(=O)N1C[C@@H](NC(=O)CCCc3cn(CCCCCC(=O)NC(COCCC(=O)NCCOCCOCCOCCOC[C@H]4OC[C@H](Nc5nccc(C(F)(F)F)n5)[C@@H](O)[C@H]4O)COCCC(=O)NCCOCCOCCOCCOC[C@H]4OC[C@H](Nc5nccc(C(F)(F)F)n5)[C@@H](O)[C@H]4O)nn3)C[C@H]1C(=O)N[C@@H](CC(=O)O)C(=O)N2 [Compound 53] | – | < 0.1 | < 0.1 | < 0.1 | < 0.1 | < 0.1 | < 0.1 | < 0.1 | – | – | –
5 | CC(C)C[C@@H]1NC(=O)[C@H](Cc2c[nH]cn2)NC(=O)[C@H](Cc2c[nH]c3ccccc23)NC(=O)[C@H](C)NC(=O)[C@@H]2CSSC[C@H](NC(=O)[C@H](Cc3c[nH]c4ccccc34)NC(=O)[C@H](C(C)C)NC(=O)[C@H](CC(C)C)NC(=O)[C@H](CCC(=O)O)NC(=O)CNC1=O)C(=O)N[C@@H]([C@@H](C)O)C(=O)N1CCC[C@@H]1C(=O)N1C[C@@H](NC(=O)CCOCCNC(=O)CCCc3cn(CCCCCC(=O)NC(COCCC(=O)NCCOCCOCCOCCOC[C@@]45CO[C@@H](O4)[C@H](Nc4nc(Cl)ns4)[C@@H](O)[C@H]5O)COCCC(=O)NCCOCCOCCOCCOC[C@@]45CO[C@@H](O4)[C@H](Nc4nc(Cl)ns4)[C@@H](O)[C@H]5O)nn3)C[C@H]1C(=O)N[C@@H](CC(=O)O)C(=O)N2 [Compound 9] | – | – | < 0.1 | – | < 0.1 | < 0.1 | – | < 0.1 | – | – | –
6 | CC(C)C[C@@H]1NC(=O)[C@H](Cc2c[nH]cn2)NC(=O)[C@H](Cc2c[nH]c3ccccc23)NC(=O)[C@H](C)NC(=O)[C@@H]2CSSC[C@H](NC(=O)[C@H](Cc3c[nH]c4ccccc34)NC(=O)[C@H](C(C)C)NC(=O)[C@H](CC(C)C)NC(=O)[C@H](CCC(=O)O)NC(=O)CNC1=O)C(=O)N[C@@H]([C@@H](C)O)C(=O)N1CCC[C@@H]1C(=O)N1C[C@@H](NC(=O)CCOCCNC(=O)CCCc3cn(CCCCCC(=O)NC(COCCC(=O)NCCOCCOCCOCCOC[C@H]4OC[C@H](Nc5nccc(C(F)(F)F)n5)[C@@H](O)[C@H]4O)COCCC(=O)NCCOCCOCCOCCOC[C@H]4OC[C@H](Nc5nccc(C(F)(F)F)n5)[C@@H](O)[C@H]4O)nn3)C[C@H]1C(=O)N[C@@H](CC(=O)O)C(=O)N2 [Compound 6] | – | – | < 0.1 | – | < 0.1 | < 0.1 | – | < 0.1 | – | – | –
7 | CC(C)C[C@@H]1NC(=O)[C@H](Cc2cnc[nH]2)NC(=O)[C@H](Cc2c[nH]c3ccccc23)NC(=O)[C@H](C)NC(=O)[C@@H]2CSSC[C@H](NC(=O)[C@H](Cc3c[nH]c4ccccc34)NC(=O)[C@H](C(C)C)NC(=O)[C@H](CC(C)C)NC(=O)[C@H](CCC(=O)O)NC(=O)CNC1=O)C(=O)N[C@@H]([C@@H](C)O)C(=O)N1CCC[C@@H]1C(=O)N1C[C@@H](NC(=O)CCCc3cn(C[C@H]4OC[C@H](Nc5cncc(C(F)(F)F)n5)[C@@H](O)[C@H]4O)nn3)C[C@H]1C(=O)N[C@@H](CC(=O)O)C(=O)N2 [Compound 51] | < 0.1 | < 0.1 | < 0.1 | < 0.1 | – | < 0.1 | – | – | < 0.1 | < 0.1 | –
8 | CC(C)C[C@@H]1NC(=O)[C@H](Cc2c[nH]cn2)NC(=O)[C@H](Cc2c[nH]c3ccccc23)NC(=O)[C@H](C)NC(=O)[C@@H]2CSSC[C@H](NC(=O)[C@H](Cc3c[nH]c4ccccc34)NC(=O)[C@H](C(C)C)NC(=O)[C@H](CC(C)C)NC(=O)[C@H](CCC(=O)O)NC(=O)CNC1=O)C(=O)N[C@@H]([C@@H](C)O)C(=O)N1CCC[C@@H]1C(=O)N1C[C@@H](NC(=O)c3ccc(N4CCC(CN5CCN(C[C@H]6OC[C@H](Nc7cncc(C(F)(F)F)n7)[C@@H](O)[C@H]6O)CC5)CC4)cc3)C[C@H]1C(=O)N[C@@H](CC(=O)O)C(=O)N2 [Compound 68] | – | < 0.1 | < 0.1 | < 0.1 | < 0.1 | – | – | – | – | – | –
9 | CC(C)C[C@@H]1NC(=O)[C@H](Cc2c[nH]cn2)NC(=O)[C@H](Cc2c[nH]c3ccccc23)NC(=O)[C@H](C)NC(=O)[C@@H]2CSSC[C@H](NC(=O)[C@H](Cc3c[nH]c4ccccc34)NC(=O)[C@H](C(C)C)NC(=O)[C@H](CC(C)C)NC(=O)[C@H](CCC(=O)N(C)C)NC(=O)CNC1=O)C(=O)N[C@@H]([C@@H](C)O)C(=O)N1CCC[C@@H]1C(=O)N1C[C@@H](NC(=O)CNC(COCCC(=O)NCCOCCOCCOCCOC[C@H]3OC[C@H](Nc4cncc(C(F)(F)F)n4)[C@@H](O)[C@H]3O)COCCC(=O)NCCOCCOCCOCCOC[C@H]3OC[C@H](Nc4cncc(C(F)(F)F)n4)[C@@H](O)[C@H]3O)C[C@H]1C(=O)N[C@@H](CC(N)=O)C(=O)N2 [Compound 78] (cyclo(AWHLGE(NMe2)LVWCT[dP][X1](X2)NC); disulfide 10-15) | – | < 0.1 | < 0.1 | < 0.1 | – | – | – | – | – | – | < 0.1
